Experimental data: patent publication US9028463B2 (priority 2008, dated 2015)

Experiments:
type B strain = system: type B strain; set-up: species or system ddY mice; conditions: mouse, in vivo
type A strain (H1N1) = system: type A strain (H1N1); set-up: species or system ddY mice; conditions: mouse, in vivo

CCCCCCCCCCCCO [lauryl alcohol]
HI antibody titer for type B with lauryl alcohol as adjuvant in combination (type B strain): remarkable effect was exerted on type B | HI antibody titer for type A with lauryl alcohol as adjuvant in combination (type A strain (H1N1)): HI antibody titer for type A increased
